Measured values from patent publication US8937086B2, “Compounds for the treatment of pathologies associated with aging and degenerative disorders” (University of Pittsburgh—Of the Commonwealth System of …, priority 2008, dated 2015).
Entries after “also recorded” stand apart in the source; their conditions may differ.

Tests used:
[1] = Body weight / tolerability in treated Ercc1-/Δ mice; assay type: in vivo, mouse; conditions: FIG. 11A-B; weight versus time
Method: FIG. 11A-B. Weights as a function of age of (A) male and (B) female Ercc1^−/Δ mice either treated with XJB-5-131 or vehicle (sunflower seed oil) according to the protocol shown in FIG. 7.
(§1) To assess the effectiveness of XJB-5-131 in inhibiting degeneration and/or signs of aging and age-related degenerative diseases, the compound was administered, over a 18-21 week period, to progeroid Ercc1^−/Δ mice, at a dose of 2 mg/kg in sunflower seed oil carrier (to promote solubility) administered intraperitoneally three times per week (FIG. 7). Sunflower seed oil was administered to twin Ercc1^−/Δ mice according to the same schedule as a control. The treated and control mice were monitored twice a week for weight and symptom/sign development.
(§2) To assess the impact of XJB-5-131 at a cellular level, a number of experiments were carried out using mouse embryonic fibroblasts (“MEF”) cells harvested from Ercc1^−/− mouse embryos.

Ercc1^−/Δ mice = experiment: Healthspan of progeroid Ercc1-/Δ mice treated with compound vs sibling given vehicle; assay type: in vivo, mouse
Text: FIG. 7. Experimental system for determining the impact of a therapeutic compound on the healthspan of Ercc1^−/Δ mice with accelerated aging. Transgenic mice or mutant animals were born from heterozygous crossings. Only litters with two Ercc1^−/Δ mice were enrolled in the study so that siblings could be used to assess the effect of a therapeutic compound, XJB-5-131 vs. vehicle in a pair-wise comparison. Treatments were initiated before the mice became symptomatic. The age at onset of progeroid symptoms were measured biweekly by an investigator blinded to the treatment of the mice.
as §1

Ercc1^−/− primary MEF = experiment: γH2AX immunostaining of oxidatively stressed primary MEF; assay type: cell-based, mouse; conditions: 20% oxygen
Method: FIG. 13A-B. γH2AX immunostaining of Ercc1^−/− primary MEF grown at 20% oxygen to induce oxidative stress. Phosphorylated H2AX (γH2AX is a marker of cellular senescence and DNA damage. The MEF cells were either treated with XJB-5-131 (A) or E71-58 (B), fewer cells stained positively for γH2AX.
as §2
Next, the abilities of these two compounds, as well as XJB-5-131 and JP4-039, each at a concentration of 1 μM, were tested for their ability to prevent cellular senescence in cell cultures prepared, and oxidatively stressed, as in the preceding paragraph. Treated as well as untreated cells were, after 48 hours, immunostained for γ-H2AX, a marker of DNA double-strand breaks as well as cellular senescence.

[2] = test system: MEF cells prepared from Ercc1^−/− mice; experiment: Apoptosis in MEF cells; assay type: cell-based, mouse; conditions: 500 nM in media, 48 hours; vs media alone
Method: FIG. 14. Apoptosis in MEF cells prepared from Ercc1^−/− mice, where the MEF cells were either treated with XJB-5-131 (500 nM dissolved in media) or media alone continuously for 48 hours prior to fixing and staining the cells.
as §2

Solubility (statement) = assay type: physicochemical
Text: Compounds as set forth herein may be administered in a suitable pharmaceutical carrier (e.g. sterile water, normal saline, phosphate buffered saline, etc.). Not by way of limitation, inhibitors may be administered as a solution, as a suspension, in solid form, in a sustained release formulation, in a topical cream formulation, etc. In particular non-limiting examples, an inhibitor may be incorporated into a microcapsule, nanoparticle or liposome.

[3] = test system: primary MEF from Ercc1^−/− mouse embryos; experiment: p16 immunofluorescence (irreversible cellular senescence) in MEF; assay type: cell-based; conditions: 1 μM, 48 hours, 20% oxygen; vs untreated cells
Method: FIG. 17. Levels of p16, a marker of irreversible cellular senescence, in MEF cells prepared from Ercc1^−/− mice, where the MEF cells were either treated with JP4-039 (10 μM dissolved in media) or media alone for 48 hours prior to fixing and immunostaining of cells.
To test the protective activity of JP4-039, cultures of primary MEF were prepared from Ercc1^−/− mouse embryos and grown under 20% oxygen (ambient air), which creates oxidative stress in these cells that are hypersensitive to the reactive oxygen species. The cells were then either treated with a concentration of 1 μM of XJB-5-131, JP4-039, JED-E71-37 or JED-E71-58, or left untreated, and then after 48 hours the level of p16, a marker of irreversible cellular senescence, was measured by immunofluorescence staining. […] Furthermore, in vivo, JP4-039 reversed epidermal atrophy, by increasing proliferation of keratinocytes (FIG. 10D). Thus JP4-039 was efficacious in vitro and in vivo for reducing/reversing age-related degenerative changes.

[4] = test system: Ercc1^−/cond; K14-Cre mice; experiment: UV-induced photoaging / sunburn of skin, topical cream; assay type: in vivo, mouse
Method: FIG. 10A-D. (A) Effects of (photo)aging in Ercc1^−/Δ mice either treated with XJB-5-131 (80 μg emulsified in a topical cream) or cream only according to the protocol shown in FIG. 7. The duration of treatment of mice in this figure was daily for five days post-UV irradiation. (B) Compounds as disclosed herein protect skin from photoaging by improving keratin production. Skin of Ercc1^−/cond; K14-Cre mice (missing ERCC1-XPF expression only in the skin) were treated with 20 J/m2 (half of the minimal erythemal dose) five times per week for 10 weeks to induce photoaging of the skin. Immediately after UV exposure, XJB-5-131 was applied (80 μg in 50 μL of cream) using a cotton applicator. Twenty-four hours after the last treatment, mice were euthanized and skin harvested for histopathologic examination. Skin sections were immunostained for keratin (red), DNA to reveal nuclei (blue) and actin (green). (C) Compounds as disclosed herein protect skin from inflammation in response to ultraviolet radiation. Skin of Ercc 1^−/cond; K14-Cre mice (missing ERCC1-XPF expression only in the skin) were treated with 500 J/m2 (12.5× the minimal erythemal dose) to induce erythema. Immediately after UV exposure, XJB-5-131 was applied (80 μg in 50 μL of cream) using a cotton applicator. Twenty-four hours after treatment, mice were euthanized and skin harvested for histopathologic examination. Skin sections were immunostained for keratin (red), DNA to reveal nuclei (blue) and actin (green). The thickness of the epidermal layer (indicated by the white bracket) is less in mice treated with XJB-5-131 than in mice treated with cream alone. (D) Compounds as disclosed herein reduce epidermal atrophy. Old (>24 months) normal mice were shaved and their skin treated with JP4-039 (450 μg in 50 μL of cream) or vehicle (cream) only five times per week for 10 weeks. Twenty-four hours after the last treatment, mice were euthanized and skin harvested for histopathologic examination. Skin sections were stained for DNA to reveal nuclei (blue) and actin (green).
As a measure of the effect of XJB-5-131 on photoaging or sun-induced skin changes, treated and control Ercc1^−/cond. K 14-Cre mice, which are missing ERCC1 only in the skin, were shaved, treated with a depilatory, then irradiated with UV-B light to induce sunburn (500 J/m2, the […] erythemal dose). Subsequently, the mice were treated with XJB-5-131 (80 μg) emulsified in a cream daily for five days.

R6/2 mice = experiment: Rotarod motor co-ordination in Huntington's disease model; assay type: in vivo, mouse; conditions: 2 mg/kg i.p. three times per week from 5 weeks of age; at 6 and 7 weeks of age; vs untreated mutant animals
Method: FIG. 19. XJB-5-131 preserved motor function in a mouse model of Huntington's disease. Five R6/2 mice, which model Huntington's disease, were treated three times per week with 2 mg/kg XJB-5-131 beginning at 5 weeks of life according to the scheme in FIG. 7. Motor function was assessed weekly by measuring the time animals were able to remain balanced on a rotarod, according to standard methods.
Huntington's disease is a fatal autosomal dominant neurodegenerative disease. The prevalence of Huntington's disease is four to seven in 100 000 and it typically develops in mid-life. The symptoms involve psychiatric, motor and cognitive disturbances, and weight loss. […] Mutant huntingtin forms insoluble aggregates that accumulate in the cytoplasm and nucleus of cells, disrupting neuron function. R6/2 mice express exon 1 of the human huntingtin gene, containing 150 CAG repeats. Consequently, the mice develop neurological symptoms that resemble many of those seen in Huntington's disease, including deficits of motor co-ordination, altered locomotor activity, impaired cognitive performance and seizures. Symptoms begin by week 3-4 and are progressive. […] Motor co-ordination was measured using a rotarod, after the mice were conditioned to the apparatus.

[5] = test system: MEF cells harvested from Ercc1^−/− mouse embryos; experiment: SA-β galactosidase staining (cellular senescence) in MEF; assay type: cell-based; conditions: 500 nM in media, ambient oxygen, 48 hours; vs media only
Method: FIG. 12. SA-β galactosidase (a marker of cellular senescence) staining in mouse embryonic fibroblast (“MEF”) cells prepared from Ercc1^−/− mice, where the MEF cells were either treated with XJB-5-131 ([…]) or media alone continuously for 48 hours prior to fixing and staining the cells.
as §2

[6] = acute or chronic photoaging, 80 μg in 50 μL of cream

## CC1(C)CCCC(C)(C)N1[O] [TEMPO, 2,2,6,6-tetramethylpiperidine-N-oxyl, reference compound]
[1]
  weight loss as a result of treatment: cause weight loss

## CC(C)C[C@@H](/C=C/[C@H](Cc1ccccc1)C(=O)N1CCC[C@H]1C(=O)N[C@H](C(=O)N[C@@H](CCCNC(=O)OCc1ccccc1)C(=O)NC1CC(C)(C)N([O])C(C)(C)C1)C(C)C)NC(=O)OC(C)(C)C [XJB-5-131]
[1]
  weight loss as a result of treatment: did not cause weight loss
Ercc1^−/Δ mice; 2 mg/kg i.p. in sunflower seed oil, three times per week, 18-21 weeks
  overall aging score (relative age at onset of progeroid symptoms vs sibling on oil): significantly improved
Ercc1^−/Δ mice; 2 mg/kg i.p. three times per week
  onset of progeroid symptoms and aging pathologies: delayed the onset
Ercc1^−/Δ mice; FIG. 8, vs vehicle only
  symptoms of accelerated aging marked with asterisk (dystonia, ataxia, muscle wasting, decreased spontaneous activity or lethargy), age at onset: significantly delayed
Ercc1^−/Δ mice; FIG. 9A, three times per week from 5 weeks of age, vs sibling on vehicle
  neurodegeneration and muscle wasting in twin mice: reduced and less
Ercc1^−/Δ mice; FIG. 9A, vs sibling on vehicle
  general appearance of twin mice: improved
Ercc1^−/Δ mice; FIG. 9B, vs sunflower seed oil
  glycosaminoglycan in intervertebral discs, more relative to control mice: approximately 30%
Ercc1^−/Δ mice; FIG. 9C, vs siblings on vehicle only
  neurodegeneration in brain/cerebellum (GFAP immunostaining): significantly reduced; also recorded: Decreased
Ercc1^−/Δ mice; FIG. 9D, H&E sections
  insulin-producing β-islet cells in pancreas: preserved; also recorded: Preservation
Ercc1^−/− primary MEF; 1 μM, 48 hours, vs untreated
  γ-H2AX immunostaining (prevention of cellular senescence): less effective
Ercc1^−/− primary MEF; FIG. 13, concentration not stated
  γH2AX foci / cells staining positively for γH2AX: reduce; also recorded: fewer
[2]
  amount of apoptosis: did not reduce
Solubility (statement)
  solubility: sparingly soluble
[3]
  level of p16: less effective
[4]; 500 J/m2, 80 μg in 50 μL of cream, 24 h, vs cream alone
  thickness of the epidermal layer after UV: less
[4]; 500 J/m2 UV-B, 80 μg in cream daily for five days, vs cream only
  skin appearance after UV-B sunburn: much more smooth and healthy
[4]; [6]
  inflammation of skin after UV: reduced
  keratin in skin sections (immunofluorescence): improved
R6/2 mice
  motor co-ordination (time on rotarod): significantly better
[5]
  amount of SA-β galactosidase staining: notably less
